Columns and labels:
[1] = system: normal NK cells expanded with K562-aAPC; test: percent inhibition of viability; higher = more inhibition; conditions: 72 h, IL-2 2.5 ng/mL
Experimental: (§1)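 Drug sensitivity and resistance testing on K562-aAPC-expanded normal NK cells: 5 concentrations (10-fold steps over a 10,000-fold range), 72 h at 37 °C, viability by CellTiter-Glo normalised to DMSO and benzethonium chloride controls; DSS from the fitted curve.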

[2] = system: DERL-7 (IL-2 2.5 ng/mL); test: as above; conditions: 72 h
[3] = system: IMC-1 (IL-2 20 ng/mL); test: as above; conditions: 72 h
[4] = system: KAI3 (IL-2 2.5 ng/mL); test: as above; conditions: 72 h
[5] = system: KHYG-1 (IL-2 2.5 ng/mL); test: as above; conditions: 72 h
[6] = system: NK-92 (IL-2 2.5 ng/mL); test: as above; conditions: 72 h
[7] = system: NK-YS (IL-2 2.5 ng/mL); test: as above; conditions: 72 h
[8] = system: NKL (IL-2 2.5 ng/mL); test: as above; conditions: 72 h
[9] = system: SNK-6 (IL-2 2.5 ng/mL); test: as above; conditions: 72 h
[10] = system: YT (IL-2 2.5 ng/mL); test: as above; conditions: 72 h
[11] = system: normal primary NK cells, pool 1 (3 donors) (IL-2 2.5 ng/mL); test: as above; conditions: 72 h
[12] = system: normal primary NK cells, pool 1 (3 donors), resting (IL-2 0 ng/mL); test: as above; conditions: 72 h
[13] = system: normal primary NK cells, pool 2 (3 donors) (IL-2 2.5 ng/mL); test: as above; conditions: 72 h
[14] = system: normal primary NK cells, pool 3 (3 donors) (IL-2 2.5 ng/mL); test: as above; conditions: 72 h
[15] = system: normal NK cells expanded with K562-aAPC; test: drug sensitivity score (DSS) (DSS units); higher = more sensitive; extreme values may be limits of the assay; conditions: 72 h; IL-2 2.5 ng/mL
Experimental: as §1

[16] = system: DERL-7 (IL-2 2.5 ng/mL); test: as above; conditions: 72 h
[17] = system: IMC-1 (IL-2 20 ng/mL); test: as above; conditions: 72 h
[18] = system: KAI3 (IL-2 2.5 ng/mL); test: as above; conditions: 72 h
[19] = system: KHYG-1 (IL-2 2.5 ng/mL); test: as above; conditions: 72 h
[20] = system: NK-92 (IL-2 2.5 ng/mL); test: as above; conditions: 72 h
[21] = system: NK-YS (IL-2 2.5 ng/mL); test: as above; conditions: 72 h
[22] = system: NKL (IL-2 2.5 ng/mL); test: as above; conditions: 72 h
[23] = system: SNK-6 (IL-2 2.5 ng/mL); test: as above; conditions: 72 h
[24] = system: YT (IL-2 2.5 ng/mL); test: as above; conditions: 72 h
[25] = system: normal primary NK cells, pool 1 (3 donors) (IL-2 2.5 ng/mL); test: as above; conditions: 72 h
[26] = system: normal primary NK cells, pool 1 (3 donors), resting (IL-2 0 ng/mL); test: as above; conditions: 72 h
[27] = system: normal primary NK cells, pool 2 (3 donors) (IL-2 2.5 ng/mL); test: as above; conditions: 72 h
[28] = system: normal primary NK cells, pool 3 (3 donors) (IL-2 2.5 ng/mL); test: as above; conditions: 72 h

Cc1cc2c(F)c(Oc3ncnn4cc(OC[C@@H](C)O)c(C)c34)ccc2[nH]1 [Brivanib] (max concentration tested 1000 nM)
percent inhibition of viability [%]
Conditions	0.1 nM	1 nM	10 nM	100 nM	1000 nM
[1]	0.76	-1.44	1.84	-3.64	-2.22
[2]	0.94	7.48	-2.36	3.07	-1.62
[3]	-8.23	-2.37	-10.1	-3.91	-8.67
[4]	-2.86	1.99	-5.53	-0.99	-2.38
[5]	-4.66	-2.28	-3.77	-3.68	-5.25
[6]	-10.1	-9.6	-3.98	-10.2	-5.2
[7]	-2	-5.08	-6.17	0.88	13.4
[8]	-11.2	-9.83	-21.6	-12.1	-10.2
[9]	5.84	-0.07	3.56	8.94	4.87
[10]	-2.1	-2.63	-1.47	-0.95	-3.56
[11]	-8.41	-6.09	4.52	-3.63	-4.56
[12]	-11.7	-6.81	7.63	-9.3	-5.72
[13]	-6.73	-10	-9.37	-10.3	-8.25
[14]	-9.42	-10.1	-12.4	-11	-7.07

Conditions	drug sensitivity score
[15]	0
[16]	0
[17]	0
[18]	0
[19]	0
[20]	0
[21]	0.18
[22]	0
[23]	0
[24]	0
[25]	0
[26]	0
[27]	0
[28]	0

Cc1ccc(Nc2nccc(N(C)c3ccc4c(C)n(C)nc4c3)n2)cc1S(N)(=O)=O [Pazopanib] (max concentration tested 10000 nM)
percent inhibition of viability [%]
Conditions	1 nM	10 nM	100 nM	1000 nM	10000 nM
[1]	3.24	-2.13	1.77	5.99	11.2
[2]	-0.93	9.12	-0.5	-6.76	-10.4
[3]	-4.11	-5.35	2.08	16.6	44.2
[4]	-4.79	-5.2	1.76	10.1	18.6
[5]	-2.36	-0.84	4.74	27.1	36.6
[6]	3.54	3.74	11.9	27.6	33.7
[7]	-0.74	0.29	6.42	12.1	15.1
[8]	-16.9	-17.8	-11.3	13.6	14.8
[9]	7.81	14.5	36.6	53.3	48.6
[10]	0.54	3.53	8.86	14.9	16.6
[11]	-5.94	2.19	-7.48	-8.52	-1.45
[12]	8.82	5.43	-6.14	-6.41	4.16
[13]	-17.7	-14.4	-13.5	-2.24	2.28
[14]	-10.1	-9.49	-4.17	-3.69	-2.21

Conditions	drug sensitivity score
[15]	0.02
[16]	0
[17]	4.34
[18]	1.17
[19]	5.18
[20]	5.68
[21]	1.11
[22]	1.08
[23]	15
[24]	1.79
[25]	0
[26]	0
[27]	0
[28]	0

CC(C)Oc1cc(Nc2nc(N[C@@H](C)c3ccc(F)cn3)ncc2Cl)n[nH]1 [AZ-23] (max concentration tested 1000 nM)
percent inhibition of viability [%]
Conditions	0.1 nM	1 nM	10 nM	100 nM	1000 nM
[1]	2.78	-2.04	0.04	9.24	31.4
[2]	-2.19	-3.08	4.42	0.42	18.3
[3]	1.36	2.7	8	5.82	6.35
[4]	0.26	-1.15	7.26	4.08	33.3
[5]	-3.32	3.62	8.53	3.55	16.2
[6]	-8.37	-0.57	6.98	-18.1	-10.1
[7]	-4.76	0.81	3.08	0.21	23.1
[8]	-5.13	-8.13	11.5	13	49.2
[9]	-7.56	5.32	3.77	17.8	36.8
[10]	-1.34	0.79	6.32	-2.16	11.8
[11]	-2.92	-1.19	-3.79	-5.46	7.88
[12]	-13.2	-3.44	-0.59	-21.9	-26.6
[13]	-2.37	-3.09	-7.97	98.9	20
[14]	-9.03	-10.1	-13.7	0.83	6.87

Conditions	drug sensitivity score
[15]	2.75
[16]	0.51
[17]	0
[18]	2.21
[19]	0.25
[20]	0
[21]	0.85
[22]	4.11
[23]	3.55
[24]	0.01
[25]	0
[26]	0
[27]	7.86
[28]	0

From the supplement of paper PMC5908809
